Measured values from DBAASP.
≈ marks a conversion by molar mass, not a printed value. Where “and” joins values, the source holds several entries; their conditions need not be identical. Equal entries are not always repeated. Each block holds one compound with its values, some of them ahead of it.

Key:
Assay in all cases: ≥ marks a high value that may be exact or a test limit, other limits are often not marked, values filed in µg/mL are converted to µM
[1] = tested on: Escherichia coli NCTC 12923
[2] = tested on: Klebsiella pneumoniae NCTC 13368
[3] = tested on: Enterococcus faecalis NCTC 775
[4] = tested on: Streptococcus pyogenes GAS M1T1
[5] = tested on: Pseudomonas aeruginosa PAO1
Klebsiella pneumoniae M6 = tested on: Klebsiella pneumoniae M6
[6] = tested on: Acinetobacter baumannii ATCC 17987
[7] = tested on: Acinetobacter baylyi ADP1
[8] = tested on: Acinetobacter baumannii NCTC 13424
Pseudomonas syringae = tested on: Pseudomonas syringae
[9] = tested on: Pseudomonas aeruginosa NCTC 13437
Escherichia coli BL21 = tested on: Escherichia coli BL21
[10] = tested on: Enterococcus faecalis NCTC 12204
[11] = tested on: Enterococcus faecalis NCTC 12201
[12] = tested on: Pseudomonas syringae pv. tomato
Escherichia coli LEC 001 = tested on: Escherichia coli LEC 001
Acinetobacter baumannii = tested on: Acinetobacter baumannii
[13] = tested on: Staphylococcus aureus NCTC 9144
[14] = tested on: Acinetobacter baumannii AYE
Staphylococcus aureus 15 = tested on: Staphylococcus aureus 15
[15] = tested on: Escherichia coli CFI_161_NDM
[16] = tested on: Escherichia coli CFI_160_KPC2
[17] = tested on: Acinetobacter baumannii NCTC 13302
Escherichia coli 319238 = tested on: Escherichia coli 319238
[18] = tested on: Xanthomonas axonopodis pv. phaseoli
[19] = tested on: Xanthomonas axonopodis pv. phaseoli ATCC 9563
[20] = tested on: Staphylococcus aureus CGMCC 1.8721
[21] = tested on: Staphylococcus epidermidis CGMCC 1.4260
[22] = tested on: Klebsiella pneumoniae CGMCC 1.1736
[23] = tested on: Bacillus subtilis CGMCC 1.3376
[24] = tested on: Escherichia coli CGMCC 1.8732
[25] = tested on: Pseudomonas aeruginosa CGMCC 1.2421
[26] = tested on: Escherichia coli ATCC 25922
[27] = tested on: Xanthomonas axonopodis pv. glycines
[28] = tested on: Staphylococcus aureus ATCC 25923
[29] = tested on: Enterococcus faecium 1299
[30] = tested on: Salmonella enterica subsp. enterica serovar Paratyphi A
[31] = tested on: Candida albicans 08030102
[32] = tested on: Candida albicans 08030401
[33] = tested on: Candida albicans 08030809
Nocardia asteroides = tested on: Nocardia asteroides
Shigella sp. = tested on: Shigella sp.
Candida glabrata 08A802 = tested on: Candida glabrata 08A802
[34] = tested on: Candida albicans 08022710
[35] = tested on: Staphylococcus aureus 08032706
[36] = tested on: Staphylococcus epidermidis
Bacillus cereus = tested on: Bacillus cereus
[37] = tested on: Stenotrophomonas maltophilia
[38] = tested on: Candida albicans 08022821
Klebsiella pneumoniae = tested on: Klebsiella pneumoniae
Escherichia coli = tested on: Escherichia coli
[39] = tested on: Candida glabrata 09050201

MIC [1]: 0.157 µM (≈ 0.5 µg/mL)
MIC [2]: 5.03 µM (≈ 16 µg/mL)
MIC [3]: ≥ 40.3 µM
MIC [4]: 8 µM (≈ 25.4 µg/mL)
MIC [5]: 8 µM and 5.03 µM
MIC (Klebsiella pneumoniae M6): 2.52 µM (≈ 8 µg/mL)
MIC [6]: 0.315 µM (≈ 1 µg/mL)
MIC [7]: 0.629 µM (≈ 2 µg/mL)
MIC [8]: 0.629 µM (≈ 2 µg/mL)
MIC (Pseudomonas syringae): 8 µM (≈ 25.4 µg/mL)
MIC [9]: ≥ 40.3 µM
MIC (Escherichia coli BL21): 2 µM (≈ 6.36 µg/mL)
MIC [10]: 5.03 µM (≈ 16 µg/mL)
MIC [11]: ≥ 40.3 µM
MIC [12]: 0.0786 µM (≈ 0.25 µg/mL)
MIC (Escherichia coli LEC 001): 2.52 µM (≈ 8 µg/mL)
MIC (Acinetobacter baumannii): 0.315 µM (≈ 1 µg/mL)
MIC [13]: 2.52 µM (≈ 8 µg/mL)
MIC [14]: 0.315 µM (≈ 1 µg/mL)
MIC (Staphylococcus aureus 15): ≥ 40.3 µM
MIC [15]: 0.315 µM (≈ 1 µg/mL)
MIC [16]: 0.629 µM (≈ 2 µg/mL)
MIC [17]: 0.315 µM (≈ 1 µg/mL)
MIC (Escherichia coli 319238): 1.26 µM (≈ 4 µg/mL)
MIC [18]: 0.0786 µM (≈ 0.25 µg/mL)
MIC [19]: 0.25 µM (≈ 0.795 µg/mL)
SMILES: CC[C@H](C)[C@H](NC(=O)[C@H](CCCCN)NC(=O)[C@H](CCC(=O)O)NC(=O)[C@H](CCCCN)NC(=O)[C@H](Cc1c[nH]c2ccccc12)NC(=O)[C@H](C)N)C(=O)N[C@@H](CCCN=C(N)N)C(=O)N[C@@H](CCCCN)C(=O)N[C@@H](CCCCN)C(=O)N[C@@H](CC(C)C)C(=O)N[C@@H](CCCCN)C(=O)N[C@@H](CC(N)=O)C(=O)N[C@@H](CCC(=O)O)C(=O)N[C@H](C(=O)N[C@@H](CCCCN)C(=O)N[C@@H](CCCCN)C(=O)N[C@@H](CCCCN)C(=O)N[C@@H](Cc1c[nH]c2ccccc12)C(=O)N[C@@H](CCCN=C(N)N)C(=O)N[C@@H](CCCCN)C(=O)N[C@@H](C)C(=O)N[C@H](C(=O)N[C@H](C(=O)N[C@@H](C)C(=O)N[C@@H](Cc1c[nH]c2ccccc12)C(=O)O)[C@@H](C)CC)C(C)C)[C@@H](C)CC [AWKEKIRKKLKNEIKKKWRKAVIAW]

MIC [20]: ≥ 100 µM
MIC [21]: 3.13 µM (≈ 8.15 µg/mL)
MIC [22]: 12.5 µM (≈ 32.6 µg/mL)
MIC [23]: 12.5 µM (≈ 32.6 µg/mL)
MIC [24]: 12.5 µM (≈ 32.6 µg/mL)
MIC [25]: 12.5 µM (≈ 32.6 µg/mL)
SMILES: CC[C@H](C)[C@H](NC(=O)[C@H](CO)NC(=O)CNC(=O)[C@@H](NC(=O)[C@@H](N)CCCN=C(N)N)[C@@H](C)CC)C(=O)N[C@@H](CC(C)C)C(=O)NCC(=O)N[C@@H](CCCN=C(N)N)C(=O)N[C@@H](CC(C)C)C(=O)N[C@@H](C)C(=O)N[C@@H](CCCCN)C(=O)NCC(=O)N[C@@H](CC(C)C)C(=O)N1CCC[C@H]1C(=O)N[C@H](C(=O)N[C@@H](CC(C)C)C(=O)N[C@@H](CCCN=C(N)N)C(=O)N[C@@H](CO)C(=O)N[C@@H](Cc1c[nH]c2ccccc12)C(=O)N[C@H](C(=O)N[C@@H](CCCCN)C(=O)N[C@@H](CC(N)=O)C(=O)N[C@@H](CCCN=C(N)N)C(N)=O)[C@@H](C)CC)[C@@H](C)O [RIGSILGRLAKGLPTLRSWIKNR]

MIC [26]: 17.8 µM (≈ 35.3 µg/mL)
MIC [27]: 2 µM (≈ 3.96 µg/mL)
MIC [28]: 32.3 µM (≈ 64 µg/mL)
SMILES: CC[C@H](C)[C@H](NC(=O)[C@@H](NC(=O)[C@H](CO)NC(=O)[C@H](Cc1c[nH]c2ccccc12)NC(=O)[C@H](CC(C)C)NC(=O)CN)[C@@H](C)O)C(=O)N[C@@H](CCCCN)C(=O)N[C@@H](CC(N)=O)C(=O)N[C@H](C(=O)N[C@@H](C)C(=O)N[C@@H](C)C(=O)N[C@@H](C)C(=O)N[C@@H](C)C(=O)NCC(=O)N[C@@H](CCCCN)C(=O)N[C@@H](C)C(=O)N[C@@H](C)C(=O)N[C@@H](CC(C)C)C(=O)NCC(=O)N[C@@H](C)C(=O)N[C@@H](CC(C)C)C(N)=O)C(C)C [GLWSTIKNVAAAAGKAALGAL]

MIC [29]: 5.53 µM (≈ 18.8 µg/mL)
MIC [30]: 22.1 µM (≈ 75 µg/mL)
MIC [31]: 5.53 µM (≈ 18.8 µg/mL)
MIC [32]: 11.1 µM (≈ 37.5 µg/mL)
MIC [33]: 11.1 µM (≈ 37.5 µg/mL)
MIC (Nocardia asteroides): 11.1 µM (≈ 37.5 µg/mL)
MIC (Shigella sp.): 0.691 µM (≈ 2.34 µg/mL)
MIC (Candida glabrata 08A802): 11.1 µM (≈ 37.5 µg/mL)
MIC [34]: 11.1 µM (≈ 37.5 µg/mL)
MIC [35]: 22.1 µM (≈ 75 µg/mL)
MIC [36]: 22.1 µM (≈ 75 µg/mL)
MIC [26]: 11.1 µM (≈ 37.5 µg/mL)
MIC (Bacillus cereus): 2.77 µM (≈ 9.38 µg/mL)
MIC [37]: 2.77 µM (≈ 9.38 µg/mL)
MIC [38]: 11.1 µM (≈ 37.5 µg/mL)
MIC (Klebsiella pneumoniae): 22.1 µM (≈ 75 µg/mL)
MIC (Escherichia coli): 22.1 µM (≈ 75 µg/mL)
MIC [39]: 22.1 µM (≈ 75 µg/mL)
SMILES: CC[C@H](C)[C@H](NC(=O)[C@H](CO)NC(=O)[C@H](CO)NC(=O)CNC(=O)CNC(=O)CNC(=O)[C@H](C)NC(=O)[C@H](Cc1ccccc1)NC(=O)[C@H](Cc1ccccc1)NC(=O)[C@H](CCCCN)NC(=O)[C@H](CCCCN)NC(=O)[C@H](CC(C)C)NC(=O)[C@H](CCCN=C(N)N)NC(=O)[C@H](CCCN=C(N)N)NC(=O)[C@H](CCSC)NC(=O)[C@H](Cc1ccccc1)NC(=O)[C@H](CCCCN)NC(=O)[C@H](CCCN=C(N)N)NC(=O)[C@H](Cc1ccccc1)NC(=O)CNC(=O)[C@H](CC(N)=O)NC(=O)[C@H](CCCN=C(N)N)NC(=O)[C@@H](N)CCCCN)C(=O)N[C@@H](C)C(=O)N[C@@H](Cc1cnc[nH]1)C(=O)N[C@H](C(=O)N[C@@H](CCCCN)C(=O)N[C@@H](CC(C)C)C(=O)N[C@@H](Cc1cnc[nH]1)C(=O)O)[C@@H](C)CC [KRNGFRKFMRRLKKFFAGGGSSIAHIKLH]
